The structures appear in SMILES notation.

The values that follow come from patent publication US7629156B2, “Ethanol production in fermentation of mixed sugars containing xylose” (E.I. du Pont de Nemours and Company, priority 2006, dated 2009).

The test relates to ZW658 strain. In words: Tube fermentation of ZW658 on glucose and xylose with various sugar alcohols (Example 14). It counts as cell-based, Zymomonas mobilis. As for the experimental part:
Approximately 1 ml of well mixed sample was obtained from flask or fermentor. First the sample absorbance was measured directly with a spectrophotometer (Amersham Biosciences Ultrospec 3300pro, GE Healthcare, Piscataway, N.J., USA). If the reading was lower than 0.6 unit, no dilution was needed. If the reading was higher than 0.6 unit, the sample was diluted with culture medium until the actual reading was in the range of 0.1 to 0.6 unit. The original OD was calculated from the dilution ratio and the actual reading.
The analysis of sugars, acetate, ethanol, and other by-products was done with an Agilent 1100 series HPLC and Agilent ChemStation software for LC 3D. The column was BioRad Aminex HPX-87H(HPLC Organic Analysis Column 125-0140) with BioRad Micro-Guard Cartridge Cation-H (125-0129). The operating conditions were:
In six sterilized 50 ml screw-cap centrifuge tubes (Cat. No. 21008-178, VWR International, USA), 200 μl of ZW658 strain glycerol stock at OD600 of approximately 10 was inoculated into each flask with 25 ml of aqueous solution containing 92 g/L glucose, 82 g/L xylose, 10 g/L yeast extract (YE), 2 g/L KH2PO4, 1 g/L MgSO4.7H2O, and 10 mM of D-sorbitol, L-sorbitol, D-threitol, myo-inositol, or xylitol. The control had no addition of sugar alcohol. Initial pH was adjusted to 5.5 with 4 N H3PO4 solution. Fermentation was conducted at 33° C. and pH was not controlled. Samples were taken periodically between 0 and 48 hr. Samples were filtered through 0.22 micron filters, and the filtrates were analyzed by HPLC as described in General Methods for glucose, xylose, xylitol, and ethanol. Samples were diluted with medium (as described in General Methods) and the OD600 was measured to monitor cell growth. Results of growth and glucose utilization are given in FIGS. 22A and 22B, respectively. Results of xylose utilization and ethanol production are given in FIGS. 23A and 23B, respectively. Cultures with D-sorbitol or L-sorbitol grew faster and better than the control. After 48 hours, the OD600 were 6.2 and 5.2, respectively, for cultures supplemented with D-sorbitol or L-sorbitol; while the OD600 were less than 1 for other cultures. […] The presence of D-sorbitol or L-sorbitol allowed more xylose utilization, without production of xylitol.

In the case of `OC[C@@H](O)[C@H](O)[C@@H](O)[C@@H](O)CO` [L-sorbitol], under “10 mM sugar alcohol vs control”, the ethanol production result is recorded as “ethanol production was also better” and the xylose utilization result was “More xylose was utilized”. Besides, the OD600 (after 48 hours, 10 mM sugar alcohol, 92 g/L glucose, 82 g/L xylose) is given as 5.2.
